In patent US20080090878A1, “Pharmaceutical combinations and their use in treating gastrointestinal and abdominal viscera disorders” (priority 1999, published 2008):

Test system: Guinea-Pig Colon Entero-Chromaffin Cells
Test: Release of serotonin (5HT) from guinea-pig colon entero-chromaffin cells, organ bath, HPLC
Format: cell-based, guinea-pigs
Details: guinea-pig proximal colon
Description: Male guinea-pigs, 200-400 g are stunned and bled. Segments of the proximal colon are removed and suspended, as described by Trendelenburg in Arch. Exp. Path. Pharmakol., 81, 55-129 (1917), in a 20 ml organ bath. The tissue is bathed with a modified Krebs solution (NaCl 118.6; CaCl2 2.7; KCl 4.7; KH2 PO4 1.2; MgSO4 0.1; NaHCO3 25.0; and glucose 5.6 mM), maintained at 37° C. 5-HT is determined by high-performance liquid chromatography with electro-chemical detection. […] To individual organ baths the following agents are added prior to the addition of physostigmine (1 microM): 1) no addition (negative control), 2) atropine (0.2 microM) (positive control), 3) hexamethonium (100 microM) (positive control), 4) tegaserod, 5) cilansetron, 6) prucalopride, 7) A-85380, 8) fedotozine, 9) chlordiazepoxide, 10) CGP49823, 11) buproprion, 12) fluvoxamine, 13) tegaserod plus cilansetron, 14) tegaserod plus prucalopride, 15) tegaserod plus A-85380, 16)-tegaserod plus fedotozine, 17) tegaserod plus chlordiazepoxide, 18) tegaserod plus SDZ-NKT-343, 19) tegaserod plus buproprion, or 20) tegaserod plus fluvoxamine. The combination of agents results in an amplification of the reduction of physostigmine-induced serotonin outflow as compared to any of the agents alone.

| SMILES | luminal outflow of 5-HT (0.2 microM) | luminal outflow of 5-HT (100 microM) |
| --- | --- | --- |
| CN1[C@@H]2CC[C@H]1C[C@@H](OC(=O)C(CO)c1ccccc1)C2 (some centres unmarked) [atropine] | significantly reduced | – |
| C[N+](C)(C)CCCCCC[N+](C)(C)C [hexamethonium] | – | significantly reduced |
